# Reference: EP0137900B1, “Bis-platinum complexes as antitumor agents” (priority 1983, dated 1985)
# How the values were obtained:
# [1] = Solubility (water, organic solvents, 1% NaHCO3, basic solutions); conditions: result in words
# [2] = in water; cited from earlier work
# [3] = system: murine tumor line L1210 leukemia; test: Antitumor screen against murine L1210 leukemia implanted in mice; type: in vivo, CDF1 mice; conditions: for Percent Increase in Lifespan: start 24 hours after inoculation of 1 x 10^6 L1210 cells in CDF1 mice; for toxic dose: L1210-bearing mice
# [4] = 1% nahco3
substance,measurement,setting,value
"5,5'-carbonylbistrimellito bis [(1,2-diaminocyclohexane)platinum(II)1 [Example 6]",solubility in 1% NaHC03 solution,[1],dissolves readily
cis-[Pt(NH3)2Cl2] [Cisplatin],water solubility,[2],about 1 mg/ml
"benzenepentacarboxylatobis[(1,2-diaminocyclohexane) platinum(ll)] [Example 1]",Percent Increase in Lifespan,"[3]; Dose 2.5 mg/kg, Daily x 7, intraperitoneally, in 1% NaHCO3",87%
same,Percent Increase in Lifespan,"[3]; Dose 2.5 mg/kg, schedule 'Drugs 1, 5 and 9' [sic], intraperitoneally",21%
same,Percent Increase in Lifespan,"[3]; Dose 5.0 mg/kg, Daily x 7, intraperitoneally, in 1% NaHCO3",117%
same,Percent Increase in Lifespan,"[3]; Dose 5.0 mg/kg, schedule 'Drugs 1, 5 and 9' [sic], intraperitoneally",43%
same,Percent Increase in Lifespan,"[3]; Dose 10.0 mg/kg, Daily x 7, intraperitoneally, in 1% NaHCO3",61%
same,Percent Increase in Lifespan,"[3]; Dose 10.0 mg/kg, schedule 'Drugs 1, 5 and 9' [sic], intraperitoneally",135%
same,Percent Increase in Lifespan,"[3]; Dose 20.0 mg/kg, schedule 'Drugs 1, 5 and 9' [sic], intraperitoneally",193%
same,toxic dose,[3]; daily x 7 schedule,20 mg/kg
same,toxic dose,"[3]; days 1, 5, 9 schedule",40 mg/kg
same,activity against the experimental murine tumor line L1210 leukemia,"[3]; dose range 2.5-20 mg/kg, result in words",active
same,solubility,[4],greater than 10 mg/ml
